The values that follow come from paper PMC6522912, “Evaluation of the published kinase inhibitor set to identify multiple inhibitors of bacterial ATP-dependent mur ligases” (Journal of Enzyme Inhibition and Medicinal Chemistry, 2019).

Data set [1] has as its target E. coli MurC (Escherichia coli, UniProt P17952). The data set is described as follows: Malachite green inhibition assay, MurC. It is filed as biochemical.
Data set [2] concerns the target E. coli MurD (Escherichia coli, UniProt P14900). Briefly: biochemical. In outline: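 Orthophosphate released by E. coli MurD quantified by malachite green (Biomol green) absorbance at 650 nm after 15 min at 37 °C. Residual activity relative to DMSO-only controls.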
Data set [3] concerns the target E. coli MurF (Escherichia coli, UniProt P11880). Briefly: biochemical.
Data set [4] in a line: Solubility observations in assay mixtures and NMR buffer. It is filed as physicochemical. The conditions noted are these: NMR buffer, MurD:ligand molar ratio 1:8, 0.07 mM MurD.
Data set [5] has as its system human kinases. As to conditions: over 200 kinase activity assays and 68 DSF assays; cited from earlier work. On the technique in general: DSF heats the sample and reads unfolding from a dye or from intrinsic fluorescence.
The mark [6] stands for this setting: Table S3, aza stilbene compounds.
Where [7] appears, read: residual activity at 100 µM compound, Table 1.
Setting [8] is: ligand efficiency, LE = (1.37 × pIC50)/HAC.

Sequence of E. coli MurD (P14900 whole entry): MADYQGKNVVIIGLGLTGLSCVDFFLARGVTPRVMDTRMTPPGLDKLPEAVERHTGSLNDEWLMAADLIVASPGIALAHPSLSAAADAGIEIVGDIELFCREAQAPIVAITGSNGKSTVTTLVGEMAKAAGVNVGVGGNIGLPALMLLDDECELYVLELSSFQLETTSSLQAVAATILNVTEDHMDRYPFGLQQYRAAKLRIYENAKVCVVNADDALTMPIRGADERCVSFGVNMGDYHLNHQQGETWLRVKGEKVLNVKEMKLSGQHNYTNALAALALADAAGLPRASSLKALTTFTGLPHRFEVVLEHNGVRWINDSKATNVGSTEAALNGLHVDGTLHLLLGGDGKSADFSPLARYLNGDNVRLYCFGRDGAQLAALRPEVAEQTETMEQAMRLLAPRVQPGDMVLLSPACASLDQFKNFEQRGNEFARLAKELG
Sequence of E. coli MurF (P11880 whole entry): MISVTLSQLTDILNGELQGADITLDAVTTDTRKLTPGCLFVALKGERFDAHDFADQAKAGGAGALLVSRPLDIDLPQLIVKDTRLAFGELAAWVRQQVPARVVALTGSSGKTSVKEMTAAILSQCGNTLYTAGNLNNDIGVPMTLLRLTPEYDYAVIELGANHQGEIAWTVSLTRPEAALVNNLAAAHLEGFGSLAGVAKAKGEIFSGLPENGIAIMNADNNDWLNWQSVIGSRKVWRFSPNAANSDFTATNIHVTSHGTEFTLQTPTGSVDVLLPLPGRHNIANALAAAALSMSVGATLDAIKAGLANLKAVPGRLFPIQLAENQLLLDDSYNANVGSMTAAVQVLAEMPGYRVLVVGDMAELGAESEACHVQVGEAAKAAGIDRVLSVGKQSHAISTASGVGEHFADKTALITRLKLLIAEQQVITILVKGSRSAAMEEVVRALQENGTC
Sequence of E. coli MurC (P17952 whole entry): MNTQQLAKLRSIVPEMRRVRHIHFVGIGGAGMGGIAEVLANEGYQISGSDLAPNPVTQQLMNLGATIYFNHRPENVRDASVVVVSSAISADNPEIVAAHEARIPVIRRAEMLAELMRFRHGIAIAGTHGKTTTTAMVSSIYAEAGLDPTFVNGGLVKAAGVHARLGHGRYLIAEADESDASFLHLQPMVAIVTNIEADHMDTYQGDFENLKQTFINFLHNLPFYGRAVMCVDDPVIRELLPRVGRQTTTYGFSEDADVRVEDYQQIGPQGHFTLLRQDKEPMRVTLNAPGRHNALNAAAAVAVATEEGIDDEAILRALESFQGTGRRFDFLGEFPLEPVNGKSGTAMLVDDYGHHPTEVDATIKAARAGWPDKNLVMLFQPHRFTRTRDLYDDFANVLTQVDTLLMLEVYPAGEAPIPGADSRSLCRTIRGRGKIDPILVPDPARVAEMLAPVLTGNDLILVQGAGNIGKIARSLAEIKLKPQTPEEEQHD

For orientation: IC50 means the concentration that gives 50% inhibition. Take `Cc1cc(-c2ccco2)cc(C)c1/C=C/c1cncc(-c2nn[nH]n2)c1` [Compound 1]: the remaining activity at 100 µM in data set [1] (0.25 h, Table S1, PKIS screening, read-out: RA [%] at 100 µM MurC) stood at 70%; in data set [2] (0.25 h, Table S1, PKIS screening, read-out: RA [%] at 100 µM MurD), 45%; in data set [3] (0.25 h, Table S1, PKIS screening, read-out: RA [%] at 100 µM MurF), 26%. Moreover, the IC50 in data set [1] (Table 1, read-out: MurC IC50) is 368 µM; in data set [2] (Table 1, read-out: MurD IC50), 104 µM; in data set [3] (Table 1), 59 µM. Also, the “RA (%) MurC” value in data set [1] (setting [6]) stood at 70%. The “MurC RA [%]” value in data set [1] (setting [7]) stood at 70%. Also, the “LE (MurD)” value in data set [2] (setting [8]) is listed as 0.21. Moreover, in data set [2] (setting [7]), the “MurD RA [%]” value worked out at 45%. In data set [3] (setting [6]), the “RA (%) MurF” value was determined as 26%. Moreover, in data set [3] (setting [8]), the “LE (MurF)” value was found to be 0.22. The “MurF RA [%]” value in data set [3] (setting [7]) was 26%. Also, the solubility entry in data set [4] is reported as “not completely dissolved”. In addition, the “activity at human kinases” value in data set [5] is on record as “no appreciable activity”.
